Laboratory results taken from US12122756B2, “Biflavone compound against I-type herpes simplex virus, and preparation method therefor and use thereof” (priority 2022, dated 2024).
Marks after values point to notes of the source that are not given here.

How the values were obtained:
[1] = test system: Vero cells; assay: Cytotoxic assay of tested drugs against Vero cells (CCK-8); assay type: cell-based, African green monkey
Protocol: 3. Cytotoxic assay of tested drugs against Vero cells: Vero cells were seed in a 96 well plate at 3×10^4 cells/well. The next day, after growing into a monolayer, the test drug was diluted to obtain 8-9 concentrations and added to each well. Meanwhile, a normal control group was established, with 4 replicate wells for each group. After 72 hours, the toxicity of the test drug to Vero cells was measured using CCK-8 assay, and the highest non-toxic concentration and half toxic concentration (TC50) of the drug on the cells were calculated.

[2] = test system: HSV-I; assay: Cytopathic effect (CPE) assay: inhibition of pathological changes of Vero cells induced by HSV-I (CCK-8); assay type: cell-based, Herpes simplex virus type I
Protocol: (1) Determination of the inhibitory activities of the test drugs on pathological changes of Vero cells induced by HSV-I using the cytopathic effect (CPE) assay: Vero cells were seeded in a 96-well plate and grew into a monolayer the next day. 100TCID50 HSV-I was added to infect cells, and then the cell maintenance solution containing different concentrations of the test drug was replaced, and a cell control group was included. The cells were cultured in an incubator for 72 hours. Then, the inhibitory effect of the drug on virus-induced cytopathic changes was measured using the CCK-8 assay, and thus the 50% inhibiting concentration (IC50) of the drug was calculated.

[3] = test system: HSV-I; assay: Action mode: inhibitory effect on HSV-I adsorption (CPE, CCK-8); assay type: cell-based, Herpes simplex virus type I
Protocol: (1) The inhibitory effect of drugs on HSV-I adsorption: Vero cells were seeded in a 96-well plate and grew into a monolayer, before pretreatment with different concentrations of samples. Then, HSV-I virus solution was added at 100 μl/well, followed by incubation for 1 hour. Finally, the cell maintenance solution was replaced, and the cells were further cultured. After 72 hours, the effect on the adsorption of virus was determined using the CCK-8 method.

[4] = test system: HSV-I; assay: Action mode: direct inactivation effect on HSV-I (CPE, CCK-8); assay type: cell-based, Herpes simplex virus type I
Protocol: (3) The direct inactivation effect of drugs on HSV-I: Vero cells were seeded in a 96-well plate and grew into a monolayer. Different concentrations of samples were respectively mixed with the virus solution, followed by placing at 37° C. for 1 hour. Then, the solution was added the cells, and incubated for 1 hour. Then, the cell maintenance solution was replaced, and the cells were further cultured. After 72 hours, the direct inactivation effects of drugs on HSV-I was determined using the CCK-8 method. Moreover, a virus control group was set up.

[5] = test system: HSV-I viral keratitis; assay: HSV-I viral keratitis model in mice, eye drops; assay type: in vivo
Text: 8-week-old C57 mice (25 mice, weighing 22 g-25 g) were used to establish HSV-I viral keratitis models in their right eyes. During the modeling process, ster[…] needles were used to make #-shaped/*-shaped/parallel scratches on the cornea of all animals' right eyes. The depth of the scratches must be in the superficial layer, and could not penetrate the stroma. The depth of the scratches for each eye was moderately uniform, and the scratches were evenly distributed, and then a fiber syringe was used to drop 4 μl of HSV-I virus solution mixed well (titer: 2.0×10^6 PFU/ml), to finish modeling. After 1 day of modeling, the right eye of the animal was scored for HSV-I viral keratitis, and 20 mice with successful and uniform modeling were selected for inclusion in the experiment, which were randomly divided into two groups: a modeling group (Ctrl) and a di-XYW compound group, with 10 mice in one group. The surface of the right eye of the animal was treated with a corresponding solvent (Ctrl group, with physiological saline as the solvent) or a di-XYW compound at a concentration of 500 μg/ml (using physiological saline as the solvent), by administering every other day. On the day of administration, each eye should be administrated 5 times, 10 μl for each time, for 2 weeks. The pathological change of keratitis was scored before eye drops (Day 0) and on days 1, 3, 7, and 14 after eye drops (that was summarized as clinical scores, with scoring criteria shown in Table 7), followed by analysis and comparison. [table]

[6] = Solubility (highest solubility used as starting concentration; water solubility)

COc1c(O)c(Cc2c(O)c(OC)c(O)c3c(=O)c(-c4ccc(O)c(S(=O)(=O)[O-])c4)coc23)c2occ(-c3ccc(O)c(S(=O)(=O)[O-])c3)c(=O)c2c1O.[Na+].[Na+] [Compound 2, 8,8″-methylene-di-(sodiumtectorigenin-5′-sulphonate)]
growth inhibition rate (%) on Vero cells ([1]; 1st (highest) concentration (971, 1600, 2620, 390 μg·ml^−1 for Compounds 1-4), 72 h): 41.92** %
growth inhibition rate (%) on Vero cells ([1]; 2nd concentration, 50% serial dilution from column-head concentration, 72 h): 29.02** %
growth inhibition rate (%) on Vero cells ([1]; 3rd concentration, 50% serial dilution from column-head concentration, 72 h): 11.69** %
growth inhibition rate (%) on Vero cells ([1]; 4th concentration, 50% serial dilution from column-head concentration, 72 h): −4.55%
growth inhibition rate (%) on Vero cells ([1]; 5th concentration, 50% serial dilution from column-head concentration, 72 h): 5.46%
growth inhibition rate (%) on Vero cells ([1]; 6th concentration, 50% serial dilution from column-head concentration, 72 h): −4.74%
growth inhibition rate (%) on Vero cells ([1]; 7th concentration, 50% serial dilution from column-head concentration, 72 h): −12.11%
growth inhibition rate (%) on Vero cells ([1]; 8th concentration, 50% serial dilution from column-head concentration, 72 h): −8.20%
growth inhibition rate (%) on Vero cells ([1]; 9th concentration, 50% serial dilution from column-head concentration, 72 h): −13.88%
TC50 on Vero cells ([1]; 72 h, CCK-8, Probit regression): 1749.982 µg/mL
toxicity (in words) ([1]; Vero cells): lower toxicity
TC50 ([1]; Vero cells (Table 5)): 1749.982 µg/mL
highest non-toxic concentration ([1]; Vero cells, 72 h, CCK-8): 382.804 µg/mL
Average optical density (OD) ([2]; 5.97 μg/ml, n = 6): 0.33 ± 0.04
Average optical density (OD) ([2]; 11.94 μg/ml, n = 6): 0.35 ± 0.05
Average optical density (OD) ([2]; 23.88 μg/ml, n = 6): 0.44 ± 0.07
Average optical density (OD) ([2]; 47.75 μg/ml, n = 6): 0.65 ± 0.06
Average optical density (OD) ([2]; 95.50 μg/ml, n = 6): 0.95 ± 0.04
Average optical density (OD) ([2]; 191.00 μg/ml, n = 6): 1.06 ± 0.05
Average optical density (OD) ([2]; 382.00 μg/ml, n = 6): 1.10 ± 0.03
inhibitory effect on HSV-I induced cytopathic changes (in words) ([2]; CPE method): significant inhibitory effect
inhibition at 5.97 µg/mL ([2]; Human alphaherpesvirus 1, Vero, 5.97 μg/ml, n = 6, read-out: Inhibition rate (%)): -0.36%
inhibition at 11.94 µg/mL ([2]; Human alphaherpesvirus 1, Vero, 11.94 μg/ml, n = 6, read-out: Inhibition rate (%)): 2.87%
inhibition at 23.88 µg/mL ([2]; Human alphaherpesvirus 1, Vero, 23.88 μg/ml, n = 6, read-out: Inhibition rate (%)): 14.5%
inhibition at 47.75 µg/mL ([2]; Human alphaherpesvirus 1, Vero, 47.75 μg/ml, n = 6, read-out: Inhibition rate (%)): 40.7%
inhibition at 95.5 µg/mL ([2]; Human alphaherpesvirus 1, Vero, 95.50 μg/ml, n = 6, read-out: Inhibition rate (%)): 79.9%
inhibition at 191 µg/mL ([2]; Human alphaherpesvirus 1, Vero, 191.00 μg/ml, n = 6, read-out: Inhibition rate (%)): 94%
inhibition at 382 µg/mL ([2]; Human alphaherpesvirus 1, Vero, 382.00 μg/ml, n = 6, read-out: Inhibition rate (%)): 99.2%
IC50 ([2]; Human alphaherpesvirus 1, against HSV-I in Vero cells, Probit regression): 54.5 µg/mL
SI (selection index = TC50/IC50) ([2]; TC50 on Vero cells / IC50 against HSV-I): 32.117
Effect on viral adsorption: OD value ([3]; 5.97 μg/ml, n = 6): 0.24 ± 0.03
Effect on viral adsorption: OD value ([3]; 11.94 μg/ml, n = 6): 0.23 ± 0.05
Effect on viral adsorption: OD value ([3]; 23.88 μg/ml, n = 6): 0.24 ± 0.04
Effect on viral adsorption: OD value ([3]; 47.45 μg/ml, n = 6): 0.25 ± 0.04
Effect on viral adsorption: OD value ([3]; 95.50 μg/ml, n = 6): 0.26 ± 0.06
Effect on viral adsorption: OD value ([3]; 191.00 μg/ml, n = 6): 0.25 ± 0.06
Effect on viral adsorption: OD value ([3]; 382.00 μg/ml, n = 6): 0.24 ± 0.06
inhibitory effect on viral adsorption (in words) ([3]; CPE method): almost no inhibitory effect
inhibition at 5.97 µg/mL ([3]; Human alphaherpesvirus 1, 5.97 μg/ml, n = 6, read-out: Effect on viral adsorption: Inhibition rate (%)): 4.97%
inhibition at 11.94 µg/mL ([3]; Human alphaherpesvirus 1, 11.94 μg/ml, n = 6, read-out: Effect on viral adsorption: Inhibition rate (%)): 4.83%
inhibition at 23.88 µg/mL ([3]; Human alphaherpesvirus 1, 23.88 μg/ml, n = 6, read-out: Effect on viral adsorption: Inhibition rate (%)): 5.22%
inhibition at 47.45 µg/mL ([3]; Human alphaherpesvirus 1, 47.45 μg/ml, n = 6, read-out: Effect on viral adsorption: Inhibition rate (%)): 6.97%
inhibition at 95.5 µg/mL ([3]; Human alphaherpesvirus 1, 95.50 μg/ml, n = 6, read-out: Effect on viral adsorption: Inhibition rate (%)): 7.33%
inhibition at 191 µg/mL ([3]; Human alphaherpesvirus 1, 191.00 μg/ml, n = 6, read-out: Effect on viral adsorption: Inhibition rate (%)): 6.16%
inhibition at 382 µg/mL ([3]; Human alphaherpesvirus 1, 382.00 μg/ml, n = 6, read-out: Effect on viral adsorption: Inhibition rate (%)): 5.39%
Direct inactivation: OD value ([4]; 5.97 μg/ml, n = 6): 0.33 ± 0.04
Direct inactivation: OD value ([4]; 11.94 μg/ml, n = 6): 0.39 ± 0.05
Direct inactivation: OD value ([4]; 23.88 μg/ml, n = 6): 0.48 ± 0.06
Direct inactivation: OD value ([4]; 47.45 μg/ml, n = 6): 0.55 ± 0.08
Direct inactivation: OD value ([4]; 95.50 μg/ml, n = 6): 0.65 ± 0.08
Direct inactivation: OD value ([4]; 191.00 μg/ml, n = 6): 0.90 ± 0.09
Direct inactivation: OD value ([4]; 382.00 μg/ml, n = 6): 1.08 ± 0.06
direct inactivation of the virus (in words) ([4]; CPE method): significant effect
inhibition at 5.97 µg/mL ([4]; Human alphaherpesvirus 1, 5.97 μg/ml, n = 6, read-out: Direct inactivation: Inhibition rate (%)): 3.91%
inhibition at 11.94 µg/mL ([4]; Human alphaherpesvirus 1, 11.94 μg/ml, n = 6, read-out: Direct inactivation: Inhibition rate (%)): 10.8%
inhibition at 23.88 µg/mL ([4]; Human alphaherpesvirus 1, 23.88 μg/ml, n = 6, read-out: Direct inactivation: Inhibition rate (%)): 22.4%
inhibition at 47.45 µg/mL ([4]; Human alphaherpesvirus 1, 47.45 μg/ml, n = 6, read-out: Direct inactivation: Inhibition rate (%)): 31.2%
inhibition at 95.5 µg/mL ([4]; Human alphaherpesvirus 1, 95.50 μg/ml, n = 6, read-out: Direct inactivation: Inhibition rate (%)): 44.2%
inhibition at 191 µg/mL ([4]; Human alphaherpesvirus 1, 191.00 μg/ml, n = 6, read-out: Direct inactivation: Inhibition rate (%)): 76%
inhibition at 382 µg/mL ([4]; Human alphaherpesvirus 1, 382.00 μg/ml, n = 6, read-out: Direct inactivation: Inhibition rate (%)): 98.7%
keratitis pathological changes and clinical score changes compared to model control group (Ctrl) ([5]; C57 mice, after 1 and 2 weeks of eye drops at 500 μg/ml, *P<0.05): statistically significant differences
therapeutic effect on HSV-I viral keratitis (in words) ([5]; C57 mice, eye drops 500 μg/ml, every other day, 5 x 10 μl per day, 2 weeks): good therapeutic effect
inhibition of pathological changes of HSV-I viral keratitis (in words) ([5]; mice, eye drops): effectively inhibit
solubility [6]: 1600 µg/mL
